Data from patent US20220356163A1, “SMALL MOLECULE INHIBITORS OF Id PROTEINS” (MEMORIAL SLOAN KETTERING CANCER CENTER, priority 2019, published 2022).
Entries after “also recorded” stand apart in the source; their conditions may differ. Like-named read-outs stand apart in the source and are kept apart here.

Experiments:
NanoLuc-ID1 = target: T1, NanoLuc-ID1 (Homo sapiens, UniProt P41134); assay: NanoBRET target engagement assay in digitonin-permeabilized 293T cells; type: cell-based; details: 2 μM tracer, 0-60 μM competitor, 50 μg/mL digitonin
T1 construct: expressed in transfected cells; host or cells: 293T cells, pcDNA3.1, digitonin-permeabilized
Method: NanoBRET™ target engagement assay. A N-terminal NanoLuc® luciferase ID1 fusion protein was synthesized by Genewiz (South Plainfield, N.J., USA) into the pUC57 backbone and then cloned into the pcDNA3.1 plasmid with EcoRI-HF and XbaI (both enzymes from New England Biolabs, Ipswich, Mass., USA). The assay was performed essentially as described in the NanoBRET™ TE Intracellular BET BRD Assay kit manual (Promega Corporation, Madison, Wis., USA). Briefly, cells were transfected and after 24 hours were plated onto flat bottom, non-binding surface, white, polystyrene 96-well plates (Corning Incorporated, Kennebunk, Me., USA). The AGX51 tracer was then added ([…]), followed by digitonin (Sigma, St. Louis, Mo., USA) to permeabilize the cells ([…]). The NanoBRET™ Nano-Glo® Substrate (Promega) was then added and readings taken using a GloMax Discover System instrument (Promega). For the competition assays, cells were treated with 2 μM of AGX51 tracer and 0-60 μM of AGX-A or AGX51.
This assay is based on the NanoBRET™ Target Engagement Intracellular BET BRD Assay (Promega). A construct expressing a NanoLuc® luciferase ID1 fusion protein and an AGX51-fluorescent tracer was generated (FIG. 10A). […]

WITT = assay: Cholangiocarcinoma cell viability, WITT; type: cell-based
Method: (§1) Cell viability assays. Cell lines were seeded in a 96 well plate (5000 cells per well). After overnight incubation, cells were treated with AGX51 and incubated for 24 hours then MTT reagent (5 mg/mL) was added per well and the cells were incubated for four hours. Following incubation, media was aspirated and 200 μL DMSO was added per well. Absorbance was then measured at 570 nm using a plate reader (Synergy 2, BioTek). Cell growth profiles were determined by seeding 38,000 cells in a 24-well plate, in triplicate for each time point, and counting the cells on days 1, 3 and 5 after seeding, using trypan blue exclusion of dead cells.
(§2) The effects of AGX51 and AGX-A on cholangiocarcinoma cell viability were assessed for the six different cholangiocarcinoma cell lines. The measured IC50 values (in μM) from these studies are provided in Table 2 below, along with the ratio of the AGX51 IC50 to the AGX-A IC50 to aid in comparison.

EGI-1 = assay: Cholangiocarcinoma cell viability, EGI-1; type: cell-based
Method: as §1, §2

SNU-1079 = assay: Cholangiocarcinoma cell viability, SNU-1079; type: cell-based
Method: as §1, §2

SNU-1196 = assay: Cholangiocarcinoma cell viability, SNU-1196; type: cell-based
Method: as §1, §2

TFK-1 = assay: Cholangiocarcinoma cell viability, TFK-1; type: cell-based
Method: as §1, §2

HUCC-T1 = assay: Cholangiocarcinoma cell viability, HUCC-T1; type: cell-based
Method: as §1, §2

Id1 = target: T2, Id1 (Mus musculus, UniProt P20067); assay: Circular dichroism (CD) of Id1; type: binding
T2 construct: GST (N, cleaved yes); made in house; host or cells: E. coli Rosetta 2(DE3)
T2 sequence (P20067 1-168): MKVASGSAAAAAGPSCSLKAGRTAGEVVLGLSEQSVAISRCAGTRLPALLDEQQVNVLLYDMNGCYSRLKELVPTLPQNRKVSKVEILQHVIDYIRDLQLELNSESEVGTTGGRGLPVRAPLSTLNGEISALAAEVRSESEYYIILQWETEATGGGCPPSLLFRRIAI
Method: Id protein purification. pGEV-PSP-mId1 and mId3 expression constructs were transformed into Rosetta 2(DE3) Competent Cells (Sigma Millipore) for protein expression. To produce recombinant GST-tagged protein, a 50 mL LB/Ampicillin (100 μg/m)+Chloramphenicol (25 μg/mL) culture was grown overnight at 37° C. Early the next day, the overnight culture was diluted 1:100 into 6 L LB/Ampicillin+Chloramphenicol and cultured at 37° C. for about four hours until OD600=0.7. Cultures were induced with 1 mM IPTG and incubated at 16° C. for 16-18 hours. Cells were harvested by centrifugation at 4000 rpm for 15 minutes at 4° C. and the pellet was resuspended in lysis buffer (50 mM Tris pH 8.0; 400 mM NaCl; 0.5 mM TCEP, Protease Inhibitor Cocktail) (25 mL/L of culture). To lyse the cells, Triton X-100 and lysozyme were added to 0.1% and 10 μg/mL respectively, incubated for 30 minutes on ice and sonicated. Lysates were spun at 17,000 rpm for 30 minutes at 4° C. and supernatants were filtered through a […] filter before incubation with glutathione sepharose for two hours at 4° C. The sepharose with bound protein was run through a polypropylene column and washed twice with 50 mL wash buffer (50 mM Tris pH 8.0; 400 mM NaCl) before protein was eluted with 10 mL 50 mM glutathione elution buffer, pH 8.0. Protein was subjected to buffer exchange with PD10 columns (Sigma) into 12 mL storage buffer (50 mM Tris HCl pH 8.0, 400 mM NaCl, 10 mM EDTA, 1 mM DTT, 10% Glycerol).
GST-tag was cleaved with PreScission Protease (0.1 μL of 0.3 μg/μL PreScission Protease cleaves 10 μg of GST-mId1 when incubated at 4° C. for four hours) and incubated with Glutathione Sepharose to separate out the cleaved GST-tag. The cleaved mId1 protein was further cleaned by incubation with GST antibodies (Abcam #ab9085-200 μL anti-GST rabbit polyclonal; ThermoFisher #MA4-004 anti-GST mouse monoclonal) before Coomassie gel analysis. Cleaved protein was concentrated to desired strength using Amicon 3000MCO Ultra-4 centrifugal columns (UFC800308).
Circular dichroism. […]

HCT116 cells = assay: IC50 in HCT116 cells (FIG. 7C); type: cell-based

T1 sequence (P41134 whole entry): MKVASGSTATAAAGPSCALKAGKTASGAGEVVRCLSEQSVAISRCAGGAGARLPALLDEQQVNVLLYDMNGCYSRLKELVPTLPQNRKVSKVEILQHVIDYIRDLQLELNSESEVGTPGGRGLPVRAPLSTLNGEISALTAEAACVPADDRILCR

## CCC(=O)N(CCC(c1ccc2c(c1)OCO2)c1ccccc1OC)Cc1ccccc1 (racemic) [AGX51, N-(3-(benzo[d][1,3]dioxol-5-yl)-3-(2-methoxyphenyl)propyl)-N-benzylpropionamide]
NanoLuc-ID1
  competition with AGX51 tracer: could be competed with AGX51
WITT
  IC50: 33.2 µM
EGI-1; Homo sapiens
  IC50: 15.7 µM
SNU-1079
  IC50: 23.1 µM
SNU-1196
  IC50: 28.8 µM
TFK-1; TFK-1
  IC50: 15.7 µM
HUCC-T1; Homo sapiens, HuCCT-1
  IC50: 14.8 µM
Id1; 0, 10, 20 and 50 μM
  alteration of Id1 secondary structure (CD spectra): significant alteration in the secondary structure of Id1
Id1; implied from saturation of CD changes, read-out: concentration at which CD changes saturated / range of dissociation constant
  Kd: ~20 µM
HCT116 cells; Homo sapiens, HCT-116, HCT116 cells, FIG. 7C
  IC50: 22.3 µM

## COc1ccccc1C(CCNCc1ccccc1)c1ccc(OC(C)C)cc1 (centres unmarked) [AGX-A, N-benzyl-3-(4-isopropoxyphenyl)-3-(2-methoxyphenyl)propan-1-anine]
NanoLuc-ID1
  competition with AGX51 tracer: more efficiently; also recorded: exhibiting greater activity than AGX51; also recorded: worked at lower concentrations than AGX51
WITT
  (AGX51 IC50)/(AGX-A IC50): 6.25
  IC50: 5.32 µM
EGI-1
  (AGX51 IC50)/(AGX-A IC50): 3.49
  IC50: 4.49 µM
SNU-1079
  (AGX51 IC50)/(AGX-A IC50): 3.95
  IC50: 5.84 µM
SNU-1196
  (AGX51 IC50)/(AGX-A IC50): 1.94
  IC50: 14.8 µM
TFK-1; 24 hour period, FIG. 23
  dose-dependent effect on TFK1 cell viability vs AGX51: superior anti-cancer potency
TFK-1; TFK-1
  (AGX51 IC50)/(AGX-A IC50): 1.33
  IC50: 11.8 µM
HUCC-T1
  (AGX51 IC50)/(AGX-A IC50): 3.33
  IC50: 4.44 µM
Id1; comparison between compounds
  relative activity in CD assay with Id1: exhibiting greater activity than AGX51; also recorded: worked at lower concentrations than AGX51
HCT116 cells; cell-based assays, FIGS. 7C-7D (HCT116 and 4T1)
  fold reduction in IC50 values vs AGX51: ~4 fold
